In brackets after ≈: the same amount, converted by molar mass.
What was measured:
Assay type in all cases: functional, cell-based
[1] = tested on: KB; assay: Cytotoxicity against human KB cells after 1 to 11 days by MTT assay
[2] = tested on: Daoy; assay: Cytotoxicity against human DaOY cells after 1 to 11 days by MTT assay
[3] = tested on: HeLa; assay: Cytotoxicity against human HeLa cells after 1 to 11 days by MTT assay

Compound	IC50 [1]	IC50 [2]	IC50 [3]
C=C1C(=O)O[C@H]2/C=C(\C)CC/C=C(\C)CCC(=O)[C@]3(C)O[C@@H]3C[C@@H]12 [CRASSOCOLIDE N]	4.7 µg/mL (≈ 14.2 µM)	2.8 µg/mL (≈ 8.47 µM)	4.7 µg/mL (≈ 14.2 µM)
C=C1C(=O)O[C@H]2/C=C(\C)CC/C=C(\C)CC[C@H](OC(C)=O)/C(C)=C\C[C@@H]12 [CRASSOCOLIDE P]	> 20 µg/mL	1.9 µg/mL (≈ 5.3 µM)	10.8 µg/mL (≈ 30.1 µM)
C=C1C(=O)O[C@H]2/C=C(\C)CC/C=C(\C)CCC(=O)/C(C)=C\C[C@@H]12 [CRASSOCOLIDE O]	> 20 µg/mL	4.5 µg/mL (≈ 14.3 µM)	> 20 µg/mL
CO[C@@]12[C@H](COC(N)=O)C3=C(C(=O)C(C)=C(N)C3=O)N1C[C@@H]1N[C@@H]12 [MITOMYCIN]	0.08 µg/mL (≈ 0.239 µM)	0.05 µg/mL (≈ 0.15 µM)	0.06 µg/mL (≈ 0.179 µM)
